Measurements: PubChem BioAssay (NCI)
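Abbreviation: GI50, concentration required for 50% inhibition of growth. TGI: total growth inhibition.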

Key:
Experiment in all cases: growth of human tumour cells (NCI), 384-well format
[1] = system: NCI-H23 lung
[2] = system: NCI-H322M lung
[3] = system: NCI-H522 lung
[4] = system: NCI/ADR-RES ovarian
[5] = system: OVCAR-3 ovarian
[6] = system: OVCAR-4 ovarian
[7] = system: OVCAR-5 ovarian
[8] = system: OVCAR-8 ovarian
[9] = system: PC-3 prostate
[10] = system: RPMI-8226 leukemia
[11] = system: RXF 393 renal
[12] = system: SF-268 CNS
[13] = system: SF-295 CNS
[14] = system: SF-539 CNS
[15] = system: SK-MEL-2 melanoma
[16] = system: SK-MEL-28 melanoma
[17] = system: SK-OV-3 ovarian
[18] = system: SN12C renal
[19] = system: SNB-19 CNS
[20] = system: SNB-75 CNS
[21] = system: SW-620 colon
[22] = system: T-47D breast
[23] = system: TK-10 renal
[24] = system: U251 glioblastoma
[25] = system: UACC-257 melanoma
[26] = system: UACC-62 melanoma
[27] = system: UO-31 renal

Which GI50 [1] does the source give for `COc1cc([C@@H]2c3cc4c(cc3[C@@H](OC3OC5CO[C@@H](c6cccs6)OC5C(O)C3O)[C@H]3COC(=O)[C@H]23)OCO4)cc(OC)c1O` (stereo partly drawn) here?
The GI50 was 77.1 nM.

What about the TGI [1] of the same compound?
The TGI was 664 nM.

What about the GI50 [2] of the same compound?
Its GI50 is 3250 nM.

And the TGI [2]?
The TGI was 14300 nM.

What about the GI50 [3] of the same compound?
Its GI50 is 198 nM.

What about the TGI [3] of the same compound?
Its TGI is 1530 nM.

And the GI50 [4]?
Its GI50 is 63700 nM.

What about the TGI [4] of the same compound?
Its TGI is greater than 100000 nM.

And the GI50 [5]?
The GI50 was 348 nM.

And the TGI [5]?
The TGI was 2070 nM.

What about the GI50 [6] of the same compound?
The GI50 was 3420 nM.

What about the TGI [6] of the same compound?
Its TGI is 17400 nM.

What about the GI50 [7] of the same compound?
The GI50 was 395 nM.

And the TGI [7]?
Its TGI is 2410 nM.

What about the GI50 [8] of the same compound?
Its GI50 is 151 nM.

What about the TGI [8] of the same compound?
Its TGI is 1470 nM.

What about the GI50 [9] of the same compound?
The GI50 was 1390 nM.

What about the TGI [9] of the same compound?
Its TGI is 5760 nM.

What about the TGI [10] of the same compound?
Its TGI is 161 nM.

And the GI50 [11]?
Its GI50 is 685 nM.

And the TGI [11]?
The TGI was 2510 nM.

What about the GI50 [12] of the same compound?
The GI50 was 134 nM.

And the TGI [12]?
The TGI was 1350 nM.

And the GI50 [13]?
The GI50 was 103 nM.

What about the TGI [13] of the same compound?
Its TGI is 490 nM.

What about the GI50 [14] of the same compound?
The GI50 was 95.9 nM.

What about the TGI [14] of the same compound?
Its TGI is 560 nM.

And the GI50 [15]?
Its GI50 is 567 nM.

And the TGI [15]?
Its TGI is 890 nM.

And the GI50 [16]?
Its GI50 is 321 nM.

What about the TGI [16] of the same compound?
The TGI was 1970 nM.

What about the GI50 [17] of the same compound?
The GI50 was 326 nM.

What about the TGI [17] of the same compound?
Its TGI is 2670 nM.

And the GI50 [18]?
The GI50 was 139 nM.

And the TGI [18]?
Its TGI is 665 nM.

And the GI50 [19]?
Its GI50 is 219 nM.

And the TGI [19]?
The TGI was greater than 100000 nM.

And the GI50 [20]?
The GI50 was 327 nM.

And the TGI [20]?
Its TGI is 1780 nM.

What about the GI50 [21] of the same compound?
The GI50 was 44.9 nM.

And the TGI [21]?
Its TGI is 1350 nM.

What about the GI50 [22] of the same compound?
Its GI50 is 146 nM.

What about the TGI [22] of the same compound?
Its TGI is 27300 nM.

What about the GI50 [23] of the same compound?
Its GI50 is 825 nM.

What about the TGI [23] of the same compound?
Its TGI is 2240 nM.

And the GI50 [24]?
Its GI50 is 67.4 nM.

And the TGI [24]?
Its TGI is 1200 nM.

And the GI50 [25]?
The GI50 was 2850 nM.

What about the TGI [25] of the same compound?
Its TGI is 13100 nM.

And the GI50 [26]?
The GI50 was 103 nM.

And the TGI [26]?
The TGI was 1800 nM.

And the GI50 [27]?
Its GI50 is 4000 nM.

And the TGI [27]?
The TGI was 17500 nM.
